Measurements reported in patent publication US9623021B2, “Nuclear receptor binding agents” (GTX, Inc., priority 2007, dated 2017).
“Also recorded” adds a separate entry of the source. Like-named read-outs stand apart in the source and are kept apart here.

Key:
[1] = molecular target: ERβ ligand binding domain (Homo sapiens (Human), UniProt Q92731); assay: Competitive [3H]-estradiol radioligand binding, ERβ (Example 21); details: for Ki Ratio (ER-α/ER-β): ratio between the binding constants of ER-α and ER-β
Sequence of ERβ ligand binding domain (Q92731 264-498, species assumed): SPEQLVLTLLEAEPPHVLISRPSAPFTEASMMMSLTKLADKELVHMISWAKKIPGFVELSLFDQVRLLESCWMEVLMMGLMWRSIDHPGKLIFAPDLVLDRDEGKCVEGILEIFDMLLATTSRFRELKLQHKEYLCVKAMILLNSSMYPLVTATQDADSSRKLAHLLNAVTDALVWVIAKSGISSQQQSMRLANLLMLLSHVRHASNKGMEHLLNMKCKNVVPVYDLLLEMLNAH
Method: (§1) ER binding affinity was determined via one of the following methods:
(§2) Briefly, the incubation mixture was filtered through a high affinity protein binding filter, and washed several times to remove any unbound radioactivity. The filter plate was air dried and sealed on the bottom.
(§3) Following incubation, plates were harvested onto GF/B filters and radioactivity was measured with a TopCount NXT (PerkinElmer). Nonspecific binding was subtracted from total binding to yield specific binding.

ER-α = ER-α (Rattus norvegicus (Rat), UniProt P06211); assay type: cell-based; details: for Estradiol activity at 100 nM, ER-α: 100 nM NRBA compared to 1 nM estradiol
Method: COS or 293 cells were plated in DME without phenol red+10% cs FBS at 90,000 cells per well in 24 well plates, and were transfected with 0.25 μg of the vector “ERE-LUC”, where a firefly luciferase gene was driven by two estrogen responsive elements and 0.02 μg of the control CMV-LUC, Renilla where a luciferase gene was driven by a CMV promoter. […] All the receptors were cloned from rat tissue into the PCR3.1 vector backbone. Twenty four hours post transfection, cells were treated with compounds of this invention, estrogen, DHT, and other NRBAs or combinations thereof. Cells were harvested 48 hrs after transfection, and assayed for firefly and Renilla luciferase activity.

ER-β = ER-β (Rattus norvegicus (Rat), UniProt Q62986); assay: ER-β transactivation, ERE-LUC reporter in COS or 293 cells (Example 21B); assay type: cell-based
Sequence of ER-β (Q62986 whole entry, the tested form may be a part): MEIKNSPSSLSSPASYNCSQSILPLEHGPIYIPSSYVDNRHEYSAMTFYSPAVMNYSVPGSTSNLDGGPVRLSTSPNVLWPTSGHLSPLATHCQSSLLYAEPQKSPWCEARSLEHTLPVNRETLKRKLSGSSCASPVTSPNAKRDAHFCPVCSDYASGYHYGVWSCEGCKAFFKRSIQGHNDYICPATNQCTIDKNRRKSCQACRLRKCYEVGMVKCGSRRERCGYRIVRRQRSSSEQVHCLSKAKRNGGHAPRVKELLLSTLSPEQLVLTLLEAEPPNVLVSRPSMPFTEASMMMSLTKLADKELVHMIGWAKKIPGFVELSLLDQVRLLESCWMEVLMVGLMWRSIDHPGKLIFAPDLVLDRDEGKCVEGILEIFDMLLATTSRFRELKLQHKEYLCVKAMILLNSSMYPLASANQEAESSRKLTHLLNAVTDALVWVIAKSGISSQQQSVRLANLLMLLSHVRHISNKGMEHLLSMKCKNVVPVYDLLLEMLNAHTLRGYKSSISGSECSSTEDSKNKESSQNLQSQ

[2] = molecular target: ERα ligand binding domain (Homo sapiens (Human), UniProt P03372); assay: Competitive [3H]-estradiol radioligand binding, ERα (Example 21)
Sequence of ERα ligand binding domain (P03372 whole entry, looked up, species assumed, the tested form may be a part): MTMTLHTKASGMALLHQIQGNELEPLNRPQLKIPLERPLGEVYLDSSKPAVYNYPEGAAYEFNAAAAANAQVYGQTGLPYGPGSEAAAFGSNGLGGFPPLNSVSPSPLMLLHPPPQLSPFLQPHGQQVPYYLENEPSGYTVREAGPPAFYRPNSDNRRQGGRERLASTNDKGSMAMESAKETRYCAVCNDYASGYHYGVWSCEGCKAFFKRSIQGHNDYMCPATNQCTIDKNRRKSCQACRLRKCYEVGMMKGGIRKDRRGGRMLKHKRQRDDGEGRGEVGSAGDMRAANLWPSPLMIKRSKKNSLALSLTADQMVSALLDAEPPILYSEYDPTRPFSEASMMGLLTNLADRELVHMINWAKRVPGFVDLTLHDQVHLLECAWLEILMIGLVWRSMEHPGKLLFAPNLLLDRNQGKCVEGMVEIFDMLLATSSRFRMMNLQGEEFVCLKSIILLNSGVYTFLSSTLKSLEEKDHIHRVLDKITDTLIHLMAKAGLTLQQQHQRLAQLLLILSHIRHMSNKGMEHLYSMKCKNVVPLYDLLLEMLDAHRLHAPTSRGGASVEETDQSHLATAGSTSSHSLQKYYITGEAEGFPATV
Method: as §1, §2, §3

ARPE-19 cells = assay: Fluorescent detection of intracellular ROS in ARPE-19 cells (tBH oxidative stress); details: 150 μM tBH, FIG. 20B
uterus = assay: Uterotropic assay; details: 50 μg/kg/day s.c., 3 days
Method: Statistical differences among groups were evaluated by one-way ANOVA. Rats were treated for 3 consecutive days and then sacrificed 24 h after the last dose. The body of the uterus was cut just above its junction with the cervix and at the junction of the uterine horns with the ovaries. The uterus was weighed with and without intrauterine fluid. Statistical comparisons were made between the weights of empty uteri.

SHP promoter = assay: SHP promoter-luciferase in HEK-293 cells transfected with FXR and ER-β; assay type: cell-based; details: FXR and ER-β plasmids, FIG. 12E right panel
Method: FIG. 12 depict the effect of ER-β ligand on PPAR-γ function through ligand binding domain (LBD). (A). HEK-293 cells were transfected with 0.25 μg PPRE-LUC, 5 ng CMV-renilla LUC and the indicated receptors (PPAR-γ and ER-β for the left panel and PPAR-α and ER-β for the right panel). The cells were treated 24 hrs after transfection with the indicated ligands and harvested 48 hrs after transfection and firefly luciferase activity was measured and normalized to renilla luciferase. (B). H475 in ER-β LBD is important for its function. H475 in ER-β LBD was mutated to alanine (A) using a site directed mutagenesis kit. Transactivation assay was performed as described in panel A in HEK-293 cells with a titration of ER-β ligands in wild type or ER-β H475A. (C). […] HEK-293 cells were transfected with 0.25 μg PPRE-LUC, 5 ng CMV-renilla LUC and 50 ng of the indicated receptors (PPAR-γ or PPAR-γ and wild type ER-β or PPAR-γ and ER-β H475A). The cells were treated 24 hrs after transfection with the indicated ligands and harvested 48 hrs after transfection and firefly luciferase activity was measured and normalized to renilla luciferase. (D). […] HepG2 cells were transfected with 0.25 μg PPRE-LUC, 5 ng CMV-renilla LUC, 0.5 μg PGC-1 or vector backbone and 100 ng of the indicated receptors (PPAR-γ or PPAR-γ and wild type ER-β or PPAR-γ and ER-β H475A for top panels and PPAR-α or PPAR-α and ER-β for bottom panel). The cells were treated 24 hrs after transfection with the indicated ligands and harvested 48 hrs after transfection and firefly luciferase activity was measured and normalized to renilla luciferase. (E). SHP-1 is an ER-β specific target gene. HEK-293 cells were transfected with 0.25 μg SHP-LUC, 5 ng CMV-renilla LUC and 50 ng of the indicated receptors (FXR and ER-α for the left panel and FXR and ER-β for the right panel). The cells were treated 24 hrs after transfection with the indicated ligands and harvested 48 hrs after transfection and firefly luciferase activity was measured and normalized to renilla luciferase. […]

SMILES: O=c1c2ccc(O)cc2c(Cl)cn1-c1ccc(O)cc1 [Compound 12f, 4-chloro-6-hydroxy-2-(4-hydroxyphenyl)-isoquinolin-1(2H)-one]
- Ki Ratio (ER-α/ER-β) [1]: 61

SMILES: O=c1c2ccc(O)cc2c(I)cn1-c1ccc(O)cc1 [Compound 12h, 6-hydroxy-2-(4-hydroxyphenyl)-4-iodoisoquinolin-1(2H)-one]
- Ki Ratio (ER-α/ER-β) [1]: 22

SMILES: O=c1c2c(O)cc(O)cc2ccn1-c1ccc(O)cc1 [Compound 12l, 6,8-dihydroxy-2-(4-hydroxyphenyl)-isoquinolin-1(2H)-one]
- ER-α RLU/RenRLU (ER-α; dose 0.1 nM): 0.07 RLU/RenRLU
- ER-α RLU/RenRLU (ER-α; dose 1 nM): 0.07 RLU/RenRLU
- ER-α RLU/RenRLU (ER-α; dose 10 nM): 0.07 RLU/RenRLU
- ER-α RLU/RenRLU (ER-α; dose 100 nM): 0.12 RLU/RenRLU
- ER-α RLU/RenRLU (ER-α; dose 1000 nM): 0.24 RLU/RenRLU
- ER-β RLU/RenRLU (ER-β; dose 0.1 nM): 0.06 RLU/RenRLU
- ER-β RLU/RenRLU (ER-β; dose 1 nM): 0.07 RLU/RenRLU
- ER-β RLU/RenRLU (ER-β; dose 10 nM): 0.16 RLU/RenRLU
- ER-β RLU/RenRLU (ER-β; dose 100 nM): 0.46 RLU/RenRLU
- ER-β RLU/RenRLU (ER-β; dose 1000 nM): 0.55 RLU/RenRLU

SMILES: Oc1ccc(-n2ccc3cc(O)cc(O)c3c2=S)cc1 [Compound 12p, 2-(4-hydroxyphenyl)-6,8-dihydroxy-isoquinoline-1(2H)-thione]
- Ki [1]: 17 nM
- Ki Ratio (ER-α/ER-β) [1]: 8
- Estradiol activity at 100 nM, ER-α (ER-α): 45%

SMILES: COc1cc(O)c2c(=O)n(-c3ccc(O)cc3)ccc2c1C#N [Compound 12q, 8-hydroxy-2-(4-hydroxyphenyl)-6-methoxy-1-oxo-1,2-dihydroisoquinoline-5-carbonitrile]
- Estradiol activity at 100 nM, ER-α (ER-α): 25%

SMILES: O=c1c2c(O)cc(O)cc2ccn1-c1ccc(O)c(F)c1 [Compound 12s, 2-(3-fluoro-4-hydroxyphenyl)-6,8-dihydroxyisoquinolin-1(2H)-one]
- Ki Ratio (ER-α/ER-β) [1]: 25
- Estradiol activity at 100 nM, ER-α (ER-α): 29%

SMILES: COc1cc(O)c2c(=O)n(-c3ccc(O)cc3)cc(Br)c2c1 [Compound 12v, 4-bromo-8-hydroxy-2-(4-hydroxyphenyl)-6-methoxyisoquinolin-1(2H)-one]
- Estradiol activity at 100 nM, ER-α (ER-α): 17%

SMILES: O=c1c2c(O)cc(O)cc2c(Br)cn1-c1ccc(O)c(F)c1 [Compound 12z, 4-bromo-6,8-dihydroxy-2-(3-fluoro-4-hydroxyphenyl)isoquinolin-1(2H)-one]
- Ki [2]: 40 nM
- Ki Ratio (ER-α/ER-β) [1]: 12
- prevention of ROS formation / oxidative damage (ARPE-19 cells): able to prevent ROS formation as well as estradiol; also recorded: protected ARPE-19 cells from oxidative damage

SMILES: C=Cc1cn(-c2ccc(O)cc2)c(=O)c2c(O)cc(O)cc12 [Compound 14l, 6,8-dihydroxy-2-(4-hydroxyphenyl)-4-vinylisoquinolin-1(2H)-one]
- Ki [2]: 76 nM
- Ki [1]: 6 nM
- Estradiol activity at 100 nM, ER-α (ER-α): 50%
- prevention of ROS formation / oxidative damage (ARPE-19 cells): protected ARPE-19 cells from oxidative damage

SMILES: COc1ccc(-c2cn(-c3ccc(O)cc3)c(=O)c3ccc(O)cc23)cc1 [Compound 15b, 6-hydroxy-2-(4-hydroxyphenyl)-4-(4-methoxyphenyl)isoquinolin-1(2H)-one]
- Ki Ratio (ER-α/ER-β) [1]: 8.3

SMILES: C[C@]12CC[C@@H]3c4ccc(O)cc4CC[C@H]3[C@@H]1CC[C@@H]2O [Estradiol]
- uterine growth / uterine weight (uterus): stimulated the proliferation of uterus significantly

SMILES: CC(C)c1onc(-c2c(Cl)cccc2Cl)c1COc1ccc(/C=C/c2cccc(C(=O)O)c2)c(Cl)c1 [GW4064, reference compound]
- SHP activity (SHP promoter): increased its activity significantly
